Measurements as given in US7009052B2, “Sulfonamide derivatives” (Warner Lambert Company LLC, priority 2003, dated 2006).

Biological target: T1, androgen receptor (Homo sapiens, UniProt P10275)
T1 sequence (P10275 1-920 Q868H): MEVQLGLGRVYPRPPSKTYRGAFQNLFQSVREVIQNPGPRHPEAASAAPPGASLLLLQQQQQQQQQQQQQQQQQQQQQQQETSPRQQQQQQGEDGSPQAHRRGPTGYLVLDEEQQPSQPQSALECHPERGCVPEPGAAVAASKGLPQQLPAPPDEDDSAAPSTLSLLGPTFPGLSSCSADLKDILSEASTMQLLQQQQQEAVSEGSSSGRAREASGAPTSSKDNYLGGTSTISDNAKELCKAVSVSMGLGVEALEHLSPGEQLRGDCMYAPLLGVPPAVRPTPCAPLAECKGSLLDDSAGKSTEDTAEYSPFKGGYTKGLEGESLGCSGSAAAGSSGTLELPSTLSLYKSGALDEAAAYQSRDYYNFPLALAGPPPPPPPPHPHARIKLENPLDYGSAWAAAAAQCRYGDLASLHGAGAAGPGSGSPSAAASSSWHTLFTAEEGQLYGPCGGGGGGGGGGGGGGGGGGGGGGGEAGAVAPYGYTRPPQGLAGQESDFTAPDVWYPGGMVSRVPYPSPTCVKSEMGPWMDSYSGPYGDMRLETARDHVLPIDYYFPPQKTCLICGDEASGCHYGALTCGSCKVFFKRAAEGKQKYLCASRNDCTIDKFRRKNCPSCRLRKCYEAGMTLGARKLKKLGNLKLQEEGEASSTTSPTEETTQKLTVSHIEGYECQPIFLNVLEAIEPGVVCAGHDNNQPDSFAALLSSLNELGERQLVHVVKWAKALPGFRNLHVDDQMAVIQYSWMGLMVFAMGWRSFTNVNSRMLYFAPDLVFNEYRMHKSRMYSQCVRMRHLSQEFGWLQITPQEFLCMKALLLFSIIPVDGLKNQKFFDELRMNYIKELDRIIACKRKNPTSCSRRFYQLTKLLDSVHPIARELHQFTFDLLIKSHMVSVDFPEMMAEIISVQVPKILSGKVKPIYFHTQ
Experiment: AR Antagonist Cell Assay (MMTV-luciferase reporter, DHT-induced)
Type: cell-based
Details: MDA-MB453-MMTV clone 54-19 cells, 100 pM DHT, 17 hr
In short: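 Stably transfected MDA-MB453 cells carrying an ARE-containing MMTV promoter–firefly luciferase reporter, pretreated 30 min with compound at 10 uM or 1 uM in 1% charcoal-treated serum medium. Then stimulated with 100 pM DHT for 17 hr at 37° C. and luminescence read; expressed as % inhibition of DHT-induced signal.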

Structure (SMILES)	IC50
CSc1cccc(NS(=O)(=O)c2ccc3c(c2)c(C(F)(F)F)cc(=O)n3C)c1 [Example 29, 1-Methyl-2-oxo-4-trifluoromethyl-1,2-dihydroquinoline-6-sulfonicacid (3-methylsulfanylphenyl)amide]	3720 nM
CC(O)c1cccc(NS(=O)(=O)c2ccc3c(c2)c(C(F)(F)F)cc(=O)n3C)c1 (centres unmarked) [Example 28, 1-Methyl-2-oxo-4-trifluoromethyl-1,2-dihydro-quinoline-6-sulfonic acid [3-(1-hydroxyethyl)phenyl]-amide]	> 10000 nM
O=c1cc(C(F)(F)F)c2cc(S(=O)(=O)NCCc3cccs3)ccc2[nH]1 [Example 133, 2-Oxo-4-trifluoromethyl-1,2-dihydroquinoline-6-sulfonic acid(2-thiophen-2-ylethyl)amide]	1900 nM
Cc1ccc(F)c(CNS(=O)(=O)c2ccc3[nH]c(=O)cc(C(F)(F)F)c3c2)c1Cl [Example 152, 2-Oxo-4-trifluoromethyl-1,2-dihydroquinoline-6-sulfonic acid2-chloro-6-fluoro-3-methylbenzylamide]	> 10000 nM
Cc1cc(NS(=O)(=O)c2ccc3[nH]c(=O)cc(C(F)(F)F)c3c2)n(C)n1 [Example 85, 2-Oxo-4-trifluoromethyl-1,2-dihydroquinoline-6-sulfonic acid(2,5-dimethyl-2H-pyrazol-3-yl)amide]	> 10000 nM
CCCCN(CC)S(=O)(=O)c1ccc2c(c1)c(C(F)(F)F)cc(=O)n2C [Example 4, 1-Methyl-2-oxo-4-trifluoromethyl-1,2-dihydroquinoline-6-sulfonicacid butylethylamide]	10600 nM
Cc1ccc(F)cc1CNS(=O)(=O)c1ccc2[nH]c(=O)cc(C(F)(F)F)c2c1 [Example 137, 2-Oxo-4-trifluoromethyl-1,2-dihydroquinoline-6-sulfonic acid5-fluoro-2-methylbenzylamide]	3760 nM
COc1cccc(NS(=O)(=O)c2ccc3[nH]c(=O)cc(C(F)(F)F)c3c2)c1 [Example 116, 2-Oxo-4-trifluoromethyl-1,2-dihydroquinoline-6-sulfonic acid(3-methoxyphenyl)amide]	340 nM
CCc1cccc(NS(=O)(=O)c2ccc3[nH]c(=O)cc(C(F)(F)F)c3c2)c1 [Example 88, 2-Oxo-4-trifluoromethyl-1,2-dihydroquinoline-6-sulfonic acid(3-ethylphenyl)amide]	130 nM
Cc1ccc(NS(=O)(=O)c2ccc3[nH]c(=O)cc(C(F)(F)F)c3c2)cc1 [Example 83, 2-Oxo-4-trifluoromethyl-1,2-dihydroquinoline-6-sulfonic acidp-tolylamide]	1140 nM
Cn1c(=O)cc(C(F)(F)F)c2cc(S(=O)(=O)Nc3ccc(Cl)cc3)ccc21 [Example 31, 1-Methyl-2-oxo-4-trifluoromethyl-1,2-dihydroquinoline-6-sulfonicacid (4-chlorophenyl)amide]	1320 nM
COc1ccccc1NS(=O)(=O)c1ccc2[nH]c(=O)cc(C(F)(F)F)c2c1 [Example 92, 2-Oxo-4-trifluoromethyl-1,2-dihydroquinoline-6-sulfonic acid(2-methoxyphenyl)amide]	> 10000 nM
O=c1cc(C(F)(F)F)c2cc(S(=O)(=O)N[C@H]3CCCC[C@H]3OCc3ccccc3)ccc2[nH]1 [Example 160, 2-Oxo-4-trifluoromethyl-1,2-dihydroquinoline-6-sulfonic acid(2-benzyloxycyclohexyl)amide]	> 10000 nM
COCCNS(=O)(=O)c1ccc2[nH]c(=O)cc(C(F)(F)F)c2c1 [Example 119, 2-Oxo-4-trifluoromethyl-1,2-dihydroquinoline-6-sulfonic acid(2-methoxyethyl)amide]	4690 nM
CCc1cccc(NS(=O)(=O)c2ccc3c(c2)c(C(F)(F)F)cc(=O)n3C)c1 [Example 16, 1-Methyl-2-oxo-4-trifluoromethyl-1,2-dihydroquinoline-6-sulfonicacid (3-ethylphenyl)amide]	5030 nM
CC(C)Oc1cccc(NS(=O)(=O)c2ccc3c(c2)c(C(F)(F)F)cc(=O)n3C)c1 [Example 37, 1-Methyl-2-oxo-4-trifluoromethyl-1,2-dihydroquinoline-6-sulfonicacid (3-isopropoxyphenyl)-amide]	6100 nM

Structure (SMILES)	IC50
CN(CCc1ccccc1)S(=O)(=O)c1ccc2[nH]c(=O)cc(C(F)(F)F)c2c1 [Example 78, 2-Oxo-4-trifluoromethyl-1,2-dihydroquinoline-6-sulfonic acidmethylphenethylamide]	150 nM
Cn1c(=O)cc(C(F)(F)F)c2cc(S(=O)(=O)Nc3ccc(-n4ccc(C(F)(F)F)n4)cc3)ccc21 [Example 47, 1-Methyl-2-oxo-4-trifluoromethyl-1,2-dihydroquinoline-6-sulfonicacid [4-(3-trifluoromethylpyrazol-1-yl)phenyl]amide]	2960 nM
CCCCN(C)S(=O)(=O)c1ccc2[nH]c(=O)cc(C(F)(F)F)c2c1 [Example 76, 2-Oxo-4-trifluoromethyl-1,2-dihydroquinoline-6-sulfonic acidbutylmethylamide]	210 nM
Cn1c(=O)cc(C(F)(F)F)c2cc(S(=O)(=O)NCCSC(C)(C)C)ccc21 [Example 61, 1-Methyl-2-oxo-4-trifluoromethyl-1,2-dihydroquinoline-6-sulfonicacid (2-tert-butylsulfanylethyl)amide]	1530 nM
Cn1c(=O)cc(C(F)(F)F)c2cc(S(=O)(=O)NCCc3c[nH]c4ccccc34)ccc21 [Example 60, 1-Methyl-2-oxo-4-trifluoromethyl-1,2-dihydroquinoline-6-sulfonicacid [2-(1H-indol-3-yl)ethyl]amide]	6330 nM
Cn1c(=O)cc(C(F)(F)F)c2cc(S(=O)(=O)N(Cc3ccccc3)Cc3ccccc3)ccc21 [Example 9, 1-Methyl-2-oxo-4-trifluoromethyl-1,2-dihydroquinoline-6-sulfonicacid dibenzylamide]	> 10000 nM
CN1CCCC1CCNS(=O)(=O)c1ccc2[nH]c(=O)cc(C(F)(F)F)c2c1 (centres unmarked) [Example 134, 2-Oxo-4-trifluoromethyl-1,2-dihydroquinoline-6-sulfonic acid[2-(1-methylpyrrolidin-2-yl)ethyl]amide]	> 10000 nM
CC(C)OCCCNS(=O)(=O)c1ccc2[nH]c(=O)cc(C(F)(F)F)c2c1 [Example 127, 2-Oxo-4-trifluoromethyl-1,2-dihydroquinoline-6-sulfonic acid(3-isopropoxypropyl)amide]	1600 nM
O=c1cc(C(F)(F)F)c2cc(S(=O)(=O)NCc3c(F)cccc3Cl)ccc2[nH]1 [Example 142, 2-Oxo-4-trifluoromethyl-1,2-dihydroquinoline-6-sulfonic acid2-chloro-6-fluorobenzylamide]	2390 nM
O=c1cc(C(F)(F)F)c2cc(S(=O)(=O)N[C@H]3[C@@H]4CC[C@@H](C4)[C@H]3CO)ccc2[nH]1 [Example 148, 2-Oxo-4-trifluoromethyl-1,2-dihydroquinoline-6-sulfonic acid(3-hydroxy-methylbicyclo[2.2.1]hept-2-yl)]	2260 nM
CC(C)(NS(=O)(=O)c1ccc2oc(=O)cc(C(F)(F)F)c2c1)c1ccccc1 [Example 65, 2-Oxo-4-trifluoromethyl-2H-chromene-6-sulfonic acid (1-methyl-1-phenylethyl)amide]	> 10000 nM
CSc1ccccc1CNS(=O)(=O)c1ccc2[nH]c(=O)cc(C(F)(F)F)c2c1 [Example 143, 2-Oxo-4-trifluoromethyl-1,2-dihydroquinoline-6-sulfonic acid2-methylsulfanylbenzylamide]	840 nM
CCOc1ccc(NS(=O)(=O)c2ccc3c(c2)c(C(F)(F)F)cc(=O)n3C)cc1 [Example 44, 1-Methyl-2-oxo-4-trifluoromethyl-1,2-dihydroquinoline-6-sulfonicacid (4-ethoxyphenyl)amide]	3760 nM
Cc1ccc(-c2ccccc2)cc1NS(=O)(=O)c1ccc2c(c1)c(C(F)(F)F)cc(=O)n2C [Example 27, 1-Methyl-2-oxo-4-trifluoromethyl-1,2-dihydroquinoline-6-sulfonicacid (4-methylbipheny-3-yl)amide]	840 nM
CN(C1CCCCC1)S(=O)(=O)c1ccc2[nH]c(=O)cc(C(F)(F)F)c2c1 [Example 75, 2-Oxo-4-trifluoromethyl-1,2-dihydroquinoline-6-sulfonic acidcyclohexylmethylamide]	5720 nM
O=c1cc(C(F)(F)F)c2cc(S(=O)(=O)NCc3ccccc3Sc3ccccc3CO)ccc2[nH]1 [Example 155, 2-Oxo-4-trifluoromethyl-1,2-dihydroquinoline-6-sulfonic acid2-(2-hydroxymethyl-phenylsulfanyl)benzylamide]	1940 nM
